Data as given in paper PMC7730961, “Discovery of Novel Dual Extracellular Regulated Protein Kinases (ERK) and Phosphoinositide 3-Kinase (PI3K) Inhibitors as a Promising Strategy for Cancer Therapy” (Molecules, 2020).
Where a name gives a salt, the structure may show the parent alone. Read-outs that look alike come from different tables or passages of the source. Values belong to the molecule of their own block, whether it stands above or below them.

What was measured:
PI3Kα = PI3Kα (Homo sapiens, UniProt P42336); experiment: Enzymatic inhibition assay (ADP-Glo Plus luminescence kinase assay), PI3Kα; assay type: biochemical; conditions: for inhibition at 1 µM: 1 μM (1000 nM) compound
Sequence of PI3Kα (P42336 whole entry): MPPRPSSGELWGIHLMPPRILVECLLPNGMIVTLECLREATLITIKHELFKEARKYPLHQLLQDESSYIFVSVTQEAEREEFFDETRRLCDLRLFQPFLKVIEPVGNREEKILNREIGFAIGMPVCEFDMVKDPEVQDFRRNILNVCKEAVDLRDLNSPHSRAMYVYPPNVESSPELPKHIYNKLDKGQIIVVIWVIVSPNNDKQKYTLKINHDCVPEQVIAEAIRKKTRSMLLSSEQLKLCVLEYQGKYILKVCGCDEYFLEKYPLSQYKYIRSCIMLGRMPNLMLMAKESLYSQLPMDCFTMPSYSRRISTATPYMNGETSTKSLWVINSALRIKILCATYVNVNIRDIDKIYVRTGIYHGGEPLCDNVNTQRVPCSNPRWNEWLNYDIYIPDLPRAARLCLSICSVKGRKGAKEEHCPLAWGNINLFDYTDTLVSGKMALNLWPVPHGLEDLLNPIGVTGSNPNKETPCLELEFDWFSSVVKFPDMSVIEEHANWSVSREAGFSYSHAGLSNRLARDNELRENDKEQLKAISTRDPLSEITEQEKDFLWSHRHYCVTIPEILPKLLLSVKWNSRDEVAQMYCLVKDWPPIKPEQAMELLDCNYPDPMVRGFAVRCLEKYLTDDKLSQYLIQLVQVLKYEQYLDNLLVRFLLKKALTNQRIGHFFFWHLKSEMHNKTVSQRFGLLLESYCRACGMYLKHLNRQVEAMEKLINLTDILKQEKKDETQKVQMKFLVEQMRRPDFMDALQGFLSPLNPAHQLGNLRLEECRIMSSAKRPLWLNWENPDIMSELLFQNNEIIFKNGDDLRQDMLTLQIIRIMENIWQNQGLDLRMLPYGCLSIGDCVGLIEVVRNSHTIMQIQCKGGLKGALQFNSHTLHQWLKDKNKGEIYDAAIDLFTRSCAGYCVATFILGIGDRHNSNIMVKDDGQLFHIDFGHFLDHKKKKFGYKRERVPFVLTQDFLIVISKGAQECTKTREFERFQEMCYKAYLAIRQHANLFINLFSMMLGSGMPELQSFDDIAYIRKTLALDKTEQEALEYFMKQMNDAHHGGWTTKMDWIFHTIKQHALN
Sequence of PI3Kα (P27986 whole entry partner): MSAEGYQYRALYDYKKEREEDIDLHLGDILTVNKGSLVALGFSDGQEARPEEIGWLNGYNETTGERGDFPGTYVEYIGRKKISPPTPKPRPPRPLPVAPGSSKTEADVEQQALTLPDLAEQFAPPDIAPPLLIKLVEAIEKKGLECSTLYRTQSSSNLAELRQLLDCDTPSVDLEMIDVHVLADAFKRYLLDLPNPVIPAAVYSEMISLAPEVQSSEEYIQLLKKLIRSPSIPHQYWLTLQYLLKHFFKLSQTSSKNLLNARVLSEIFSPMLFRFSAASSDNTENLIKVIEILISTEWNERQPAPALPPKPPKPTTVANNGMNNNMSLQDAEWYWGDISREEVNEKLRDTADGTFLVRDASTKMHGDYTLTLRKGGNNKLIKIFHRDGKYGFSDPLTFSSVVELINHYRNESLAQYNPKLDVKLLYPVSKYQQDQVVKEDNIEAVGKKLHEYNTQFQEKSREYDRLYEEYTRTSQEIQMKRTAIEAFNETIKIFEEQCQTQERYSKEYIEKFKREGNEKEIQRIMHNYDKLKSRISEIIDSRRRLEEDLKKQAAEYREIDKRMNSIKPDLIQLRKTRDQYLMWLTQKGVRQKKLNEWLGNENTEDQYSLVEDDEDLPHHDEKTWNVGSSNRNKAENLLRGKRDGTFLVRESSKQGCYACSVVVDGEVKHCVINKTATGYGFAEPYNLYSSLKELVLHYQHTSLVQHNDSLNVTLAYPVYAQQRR
Description: The 50 µL reaction mixture contains 40 mM Tris-HCl, pH 7.4, 10 µM ATP, 10 mM MgCl2, 0.1 mg/mL BSA, 1 mM DTT, 0.2 ug/mL ERK 2, ERK 1, PI3Kα, PI3Kβ, PI3Kγ or PI3Kδ and 100 uM lipid substrate. All compounds were diluted in 10% DMSO and tested in 10-dose with 3-fold serial dilution starting at a concentration of 1 μM. Of the dilution, 5 µL was added to a 50 µL reaction so that the final concentration of DMSO is 1% in all of reactions. After all of the reaction mixtures were conducted at 30 °C for 40 min, the assay was performed using ADP-Glo Plus luminescence kinase assay kit. The luminescence signal and the intensity of the luminescence signal value were detected using a multi-well spectrophotometer (the MD-SpectraMax M5 multifunctional microplate reader). It was directly proportional to the […] enzyme activity. The experimental results were converted into active percentages, a dose-response curve is drawn, and the IC50 value of inhibition was calculated using […] PRISM 5 nonlinear regression.

ERK 2 = ERK 2 (Homo sapiens, UniProt P28482); experiment: Enzymatic inhibition assay (ADP-Glo Plus luminescence kinase assay), ERK2; assay type: biochemical; conditions: for inhibition at 1 µM: 1 μM (1000 nM) compound
Sequence of ERK 2 (P28482 whole entry): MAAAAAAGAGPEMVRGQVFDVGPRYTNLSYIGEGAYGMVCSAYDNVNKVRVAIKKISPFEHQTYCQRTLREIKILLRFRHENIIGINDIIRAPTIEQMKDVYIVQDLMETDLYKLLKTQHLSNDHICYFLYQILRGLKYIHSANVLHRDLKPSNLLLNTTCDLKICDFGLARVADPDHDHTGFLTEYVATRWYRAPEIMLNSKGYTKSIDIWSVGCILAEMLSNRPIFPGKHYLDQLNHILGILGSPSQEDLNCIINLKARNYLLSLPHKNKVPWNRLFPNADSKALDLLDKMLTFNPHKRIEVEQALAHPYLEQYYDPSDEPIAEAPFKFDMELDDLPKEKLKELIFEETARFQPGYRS
Description: All compounds were diluted in 10% DMSO and tested in 10-dose with 3-fold serial dilution starting at a concentration of 1 μM. Of the dilution, 5 µL was added to a 50 µL reaction so that the final concentration of DMSO is 1% in all of reactions. After all of the reaction mixtures were conducted at 30 °C for 40 min, the assay was performed using ADP-Glo Plus luminescence kinase assay kit. The luminescence signal and the intensity of the luminescence signal value were detected using a multi-well spectrophotometer (the MD-SpectraMax M5 multifunctional microplate reader). It was directly proportional to the inhibition of enzyme activity.

[1] = In vivo pharmacokinetic study in SD rats; design: species or system Sprague Dawley rats; conditions: for MRT last: read-out: MRT0–t
Description: The pharmacokinetic experiment was conducted by using 180–220 g male Sprague Dawley rats (purchased from Weitong Lihua Experimental Animal Co., Ltd., Beijing, China). The experimental animals were raised in a well-ventilated, air-conditioned standard animal room where the temperature was maintained at 20–25 °C, the humidity was maintained at 40–70%, and the light and dark were rotated for 12 h each. After about 5 days of normal feeding, rats with good physical signs can enter this experiment after veterinary inspection. All rats were fasted for 12 h before the start of the animal experiment. The 32d was dissolved in a mixture of 40% DMSO + 40% PEG400 + 20% 5% glucose injection at a concentration of 1 mg/mL (1 mg/kg). The 32d was administered to the […] by p.o. (0.2 mg/mL, 10 mg/kg), and blood samples (about 0.25 mL) were collected from the posterior orbital venous plexus after different time points (i.v.: 2 min, 15 min, 30 min, 1 h, 2 h, 4 h, 6 h, 8 h, and 12 h; po: 5 min, 15 min, 30 min, 1 h, 2 h, 4 h, 6 h, 8 h, 12 h, and 24 h) after dosing, with three […] for each time point. The whole plasma samples were kept frozen at −20 °C until LC/MS/MS analysis after centrifugation. WinNolin 8.2 software was used to calculate pharmacokinetic parameters, and GraphPad Prism 8.0 was used to draw plasma concentration-time curves.

HCT116 = experiment: Anti-proliferation assay (MTT, 72 h), HCT116; assay type: cell-based; conditions: Homo sapiens, HCT-116, HCT116 cells
Description: (§1) Human cancer cell lines HCT116 and HEC1B were cultured in media with 10% FBS (GIBCO, Invitrogen Corporation, NY, USA) at 37 °C in a 5% (v/v) CO2 humidified incubator. The logarithmic growth phase cells were seeded in a 96-well plate with a density of 1 × 10^5 cells/mL, cultured at 37 °C, 5% CO2. Until the cells were 90% confluent, the medium containing compound was added to incubate for 72 h, and then the cell viability was tested by MTT analysis. Taking the drug concentration as the abscissa and the percentage of proliferation inhibitory activity corresponding to each concentration as the ordinate, using Graphpad Prism 5 to do nonlinear regression, the IC50 value of each compound was calculated.

[2] = In vitro pharmacokinetic study, oxidation metabolism in human liver microsomes; assay type: in vitro ADME; conditions: n = 3
Description: The pharmacokinetic experiment was conducted by using human liver microsome (purchased from Research Institute for Liver Diseases (Shanghai) Co., Ltd., Shanghai, China). The reaction mixture contained 100 μL PBS, 40 μL liver microsome and 20 μL dilution of compound 32d. After the reaction mixtures were preconducted at 37 °C for 5 min, 40 μL NADPH solution was added to start pharmacokinetic reaction, and samples were collected at different time points (5 min, 10 min, 15 min, 30 min and 45 min). Then, 100 μL of ethyl acetate was added to stop the reaction. The whole samples were added in 10 μL of an internal standard (Phenacetin) to shake for 10 min and centrifuge at 10,000 rpm for 10 min and then taken out 300 μL of supernatant.for LC/MS/MS analysis. WinNolin 8.2 software was used to calculate pharmacokinetic parameters, and GraphPad Prism 8.0 was used to draw concentration-time curves.

HCT-116 xenograft = experiment: In vivo antitumor activity, HCT-116 xenograft in nude mice; design: species or system Balb/c-nude mice; conditions: intraperitoneal once daily, 21 days, 32d 5 mg/kg, BVD-523 5 mg/kg, GDC-0980 1 mg/kg; for TGI (tumor growth inhibitory rate): nude mice, combination 2.5 mg/kg + 0.5 mg/kg
Description: Male five-week-old Balb/c-nude mice (18–20 g) were injected subcutaneously with HCT-116 cells (5 × 10^7/mL cells suspended in Matrigel Matrix). […] All mice were administered by intraperitoneal q.d. The tumor volumes were measured using electronic digital calipers every 3 days and were calculated as 1/2 length × width × width.

HEC1B = experiment: Anti-proliferation assay (MTT, 72 h), HEC1B; assay type: cell-based; conditions: Homo sapiens, HEC-1B, HEC1B cells
Description: as §1

Solubility = assay type: physicochemical; conditions: relative to parent after introducing a hydrophilic group at the pyrazole NH
[3] = male, Sprague-Dawley, rat, plasma, iv, i.v. 1 mg/kg
[4] = male, Sprague-Dawley, rat, plasma, po, p.o. 10 mg/kg

PI3Kα Inhibition% (100 nM) (PI3Kα; 100 nM compound): 15.3%
ERK2 Inhibition% (100 nM) (ERK 2; 100 nM compound): 66.5%
Molecule: 1-Cyclopentyl-3-(7-(2-methylpyridin-4-yl)pyrido[3,2-d]pyrimidin-2-yl)urea [32k]

inhibition at 1 µM (PI3Kα): 8.7%
inhibition at 1 µM (ERK 2): 98.3%
Molecule: Cc1cc(-c2n[nH]c3nc(NC(=O)NCc4ccccc4)ncc23)ccn1 [16a, 1-Benzyl-3-(3-(2-methylpyridin-4-yl)-1H-pyrazolo[3,4-d]pyrimidin-6-yl)urea]

inhibition at 1 µM (PI3Kα): 27.4%
inhibition at 1 µM (ERK 2): 84.8%
Molecule: Cc1cc(-c2n[nH]c3nc(NC(=O)NC4CCCC4)ncc23)ccn1 [16b, 1-Cyclopentyl-3-(3-(2-methylpyridin-4-yl)-1H-pyrazolo[3,4-d]pyrimidin-6-yl)urea]

inhibition at 1 µM (PI3Kα): 1.8%
inhibition at 1 µM (ERK 2): 97.2%
Molecule: Cn1cc(-c2n[nH]c3nc(NC(=O)NCc4ccccc4)ncc23)cn1 [16c, 1-Benzyl-3-(3-(1-methyl-1H-pyrazol-4-yl)-1H-pyrazolo[3,4-d]pyrimidin-6-yl)urea]

inhibition at 1 µM (PI3Kα): 4%
inhibition at 1 µM (ERK 2): 79.5%
Molecule: Cn1cc(-c2n[nH]c3nc(NC(=O)NC4CCCC4)ncc23)cn1 [16d, 1-Cyclopentyl-3-(3-(1-methyl-1H-pyrazol-4-yl)-1H-pyrazolo[3,4-d]pyrimidin-6-yl)urea]

inhibition at 0.1 µM (PI3Kα; 100 nM compound): 10.5%
inhibition at 0.1 µM (ERK 2; 100 nM compound): 53.7%
Molecule: Cc1cc(-c2cnc3cnc(NC(=O)NC4CCCC4)nc3c2)ccn1 [32b, 1-Cyclopentyl-3-(7-(2-methylpyridin-4-yl)pyrido[3,2-d]pyrimidin-2-yl)urea]

inhibition at 0.1 µM (PI3Kα; 100 nM compound): -11.3%
inhibition at 0.1 µM (ERK 2; 100 nM compound): 1.6%
Molecule: O=C(Nc1ncc2ncc(-c3cccc(OC(F)(F)F)c3)cc2n1)NC1CCCC1 [32c, 1-Cyclopentyl-3-(7-(3-(trifluoromethoxy)phenyl)pyrido[3,2-d]pyrimidin-2-yl)urea]

AUC(0-inf) [1, 3]: 379 ng·h/mL
AUC(0-t) [1, 3]: 368 ng·h/mL
Cmax [1, 3]: 1310 ng/mL
clearance [1, 3]: 44.8 mL/min/kg
half-life [1, 3]: 2.32 h
MRT last [1, 3]: 0.99 h
Vd ([1]; male, Sprague-Dawley, rat, plasma, iv, i.v. 1 mg/kg, read-out: Vz): 9.12 L/kg
bioavailability ([1]; male, Sprague-Dawley, rat, plasma, oral, p.o. 10 mg/kg vs i.v. 1 mg/kg, read-out: oral bioavailability (F)): 9.37%
AUC(0-inf) [1, 4]: 355 ng·h/mL
AUC(0-t) [1, 4]: 192 ng·h/mL
Cmax [1, 4]: 129 ng/mL
half-life [1, 4]: 2.65 h
MRT last [1, 4]: 2.93 h
CL ([1]; p.o. 10 mg/kg): 727.9 mL/min/kg
Vz ([1]; p.o. 10 mg/kg): 244.74 L/kg
IC50 (PI3Kα): 59 nM
inhibition at 0.1 µM (PI3Kα; 100 nM compound): 51.4%
IC50 (HCT116): 726 nM
IC50 (ERK 2): 73 nM
inhibition at 0.1 µM (ERK 2; 100 nM compound): 49.3%
K ([2]; 90 ng/mL): 0.004 min⁻¹
half-life at 90 ng/mL [2]: 2.89 h
microsomal CLint at 90 ng/mL [2]: 16 µL/min/mg
Molecule: O=C(Nc1ncc2ncc(-c3cn[nH]c3)cc2n1)NC1CCCC1 [32d, 1-(7-(1H-pyrazol-4-yl)pyrido[3,2-d]pyrimidin-2-yl)-3-cyclopentylurea]
body weight of nude mice during treatment (HCT-116 xenograft): no observed body weight loss
TGI (tumor growth inhibitory rate) (HCT-116 xenograft): 51%
IC50 (HEC1B): 1490 nM

inhibition at 0.1 µM (PI3Kα; 100 nM compound): 7%
inhibition at 0.1 µM (ERK 2; 100 nM compound): 35.4%
Molecule: O=C(Nc1ncc2ncc(-c3ccnc(F)c3)cc2n1)NC1CCCC1 [32e, 1-Cyclopentyl-3-(7-(2-fluoropyridin-4-yl)pyrido[3,2-d]pyrimidin-2-yl)urea]

Molecule: O=C(Nc1ncc2ncc(C3=CCNCC3)cc2n1)NC1CCCC1 [32f, 1-Cyclopentyl-3-(7-(1,2,3,6-tetrahydropyridin-4-yl)pyrido[3,2-d]pyrimidin-2-yl)urea hydrochloride]
inhibition at 0.1 µM (PI3Kα; 100 nM compound): -8.8%
inhibition at 0.1 µM (ERK 2; 100 nM compound): 0.4%

IC50 (PI3Kα): 824 nM
inhibition at 0.1 µM (PI3Kα; 100 nM compound): 32.4%
IC50 (HCT116): 10000 nM
IC50 (ERK 2): 83 nM
inhibition at 0.1 µM (ERK 2; 100 nM compound): 55.2%
Molecule: Cn1cc(-c2cnc3cnc(NC(=O)NCc4ccccc4)nc3c2)cn1 [32g, 1-Benzyl-3-(7-(1-methyl-1H-pyrazol-4-yl)pyrido[3,2-d]pyrimidin-2-yl)urea]
IC50 (HEC1B): 2270 nM

inhibition at 0.1 µM (PI3Kα; 100 nM compound): 24.9%
inhibition at 0.1 µM (ERK 2; 100 nM compound): 17.2%
Molecule: Cn1cc(-c2cnc3cnc(NC(=O)Nc4ccccc4)nc3c2)cn1 [32h, 1-(7-(1-Methyl-1H-pyrazol-4-yl)pyrido[3,2-d]pyrimidin-2-yl)-3-phenylurea]

inhibition at 0.1 µM (PI3Kα; 100 nM compound): 33.4%
inhibition at 0.1 µM (ERK 2; 100 nM compound): 22.1%
Molecule: CCNC(=O)Nc1ncc2ncc(-c3cnn(C)c3)cc2n1 [32i, 1-Ethyl-3-(7-(1-methyl-1H-pyrazol-4-yl)pyrido[3,2-d]pyrimidin-2-yl)urea]

inhibition at 0.1 µM (PI3Kα; 100 nM compound): 15.1%
inhibition at 0.1 µM (ERK 2; 100 nM compound): 6.2%
Molecule: Cn1cc(-c2cnc3cnc(NC(=O)NCCN4CCOCC4)nc3c2)cn1 [32j, 1-(7-(1-Methyl-1H-pyrazol-4-yl)pyrido[3,2-d]pyrimidin-2-yl)-3-(2-morpholinoethyl)urea]

inhibition at 0.1 µM (PI3Kα; 100 nM compound): 41%
solubility (Solubility): ameliorated
inhibition at 0.1 µM (ERK 2; 100 nM compound): 8.4%
Molecule: CN(C)CCn1cc(-c2cnc3cnc(NC(=O)NC4CCCC4)nc3c2)cn1 [32m, 1-Cyclopentyl-3-(7-(1-(2-(dimethylamino)ethyl)-1H-pyrazol-4-yl)pyrido[3,2-d]pyrimidin-2-yl) urea]

IC50 (HCT116): 321 nM
inhibition at 0.1 µM (ERK 2; 100 nM compound): 97.7%
inhibition at 1 µM (ERK 2): 97.7%
Molecule: CC(C)Nc1cc(-c2c[nH]c(C(=O)N[C@H](CO)c3cccc(Cl)c3)c2)c(Cl)cn1 [BVD-523, reference compound]
body weight of nude mice during treatment (HCT-116 xenograft): losing
TGI (tumor growth inhibitory rate) (HCT-116 xenograft): 50%
IC50 (HEC1B): 18000 nM

Molecule: Cc1c(CN2CCN(C(=O)[C@H](C)O)CC2)sc2c(N3CCOCC3)nc(-c3cnc(N)nc3)nc12 [GDC-0980, reference compound]
IC50 (HCT116): 1060 nM
body weight of nude mice during treatment (HCT-116 xenograft): losing
TGI (tumor growth inhibitory rate) (HCT-116 xenograft): 46%
IC50 (HEC1B): 230 nM

inhibition at 1 µM (PI3Kα): 15.1%
inhibition at 1 µM (ERK 2): 1.8%
Molecule: Cn1cc(-c2cnc3nc(NC(=O)NC4CCCC4)ncc3c2)cn1 [compound 24, 1-Cyclopentyl-3-(6-(1-methyl-1H-pyrazol-4-yl)pyrido[2,3-d]pyrimidin-2-yl)urea]
